{"source": "patent US7094754B2", "about": "“Anti-aging and wound healing compounds” (Kimberly-Clark Worldwide, Inc., priority 2001, dated 2006)", "assay_type_in_all_cases": "cell-based", "key": {"[1]": {"system": "neutrophils isolated from human blood", "experiment": "Neutrophil migration assay (transwell)", "conditions": "HSA 0.4%", "description": "Peptides were synthesized and purified by the Microchemical Facility at Emory University or by SigmaGenesis. All peptides were analyzed by mass spectrometry after HPLC to assess purity. Approximately 0.5–2.0 milligrams of peptide were used to make fresh stock solutions (5 mg/mL in HBSS/HSA) for each migration assay. The peptide stock solutions were used to make more dilute solutions (1 mg/mL, 100 μg/mL, 10 μg/mL, 1 μg/mL, 100 ng/mL, and 10 ng/mL) in HBSS/HSA for the assays.\nNeutrophils were isolated from human blood (collected in Vacutainerm tubes containing EDTA) by layering the blood/EDTA mixture (about 20 mL) on top of two layers of Histopaque™ 1119 (bottom layer, 18 mL) and 1077 (top layer, 7 mL) in 50 mL Falcon tubes. The tubes were centrifuged at 1800 rpm for 30 minutes (no brake). Four layers appeared in the tubes after the spin (from top to bottom layers): plasma, 1077, 1119, and red blood cells. The buffy coat between the plasma and 1077 layers contained lymphocytes, monocytes, and some platelets. The plasma layer, the buffy coat, and most of the 1077 layer was removed and discarded. The 1119 layer that contained the neutrophils was removed and was placed into a clean 50 mL tube. Dulbecco's Phosphate Buffered Saline (DPBS) was added to bring the volume to 50 mL. The cells were centrifuged for 15 minutes at 2100 rpm. The cells were resuspended in 10 mL of DPBS, transferred to 15 mL tubes, and centrifuged again for 10 minutes at 2000 rpm. This process was repeated to wash the cells a second time. After the supernatant was removed, the red blood cells were lysed by adding 6 mL of cold sterile water to each 15 mL of supernatant. Cells were mixed in the water for only 30 seconds. Six mL of cold 2% sterile saline was then added. Cells were centrifuged again for 10 minutes at 2000 rpm. The red supernatant (containing hemoglobin from red blood cells) was removed. This process of red blood cell lysis was repeated two more times to remove all of the red blood cells. After most of the red blood cells were removed, neutrophils were resuspended in 10 mL of HBSS/HSA for counting with trypan blue.\nA neutrophil migration assay was performed in duplicate using a 24-well transwell plate (3 μm pore size for membrane). Transwell membranes were pre-moistened with 20–40 μL of HBSS/HSA (0.04–0.4%). Chemotactic solutions (500 μL) were added to the bottom of each well. […] Transwells were then placed into the chemotactic solutions. The plate was placed into the incubator (37° C., 5% CO2) for one hour. Cells that migrated through the membrane were counted using trypan blue.\nIn the neutrophil migration experiments, neutrophils that were isolated were approximately 95% viable. Neutrophils were resuspended in HBSS/0.4%HSA for this experiment. IL-8 (10 nM in the HBSS/0.4%HSA buffer) was used as a positive control for neutrophil migration."}, "[2]": {"experiment": "Viability assay (MTT) in EpiDerm skin model", "conditions": "human, EpiDerm skin model (MatTek), relative to PBS control, average over 500 μM and 2 mM, read-out: total average viability", "excerpt": "FIG. 16 provides a bar graph showing the percent living cells, relative to a positive control, in a skin model after treatment with two concentrations of peptide. The first sample, treated with phosphate buffered saline (PBS), is the positive control used to establish the cell count representing 100% viability. The second sample is a negative control where cells were exposed to 1% Triton-X100, showing that the assay can detect cell death. […] Data shown represent the average of three tests.\nThe sample containers were transferred to 6 well plates that contained fresh media. All peptides were dissolved in PBS at a final concentration of 10 mM, and 100 μL each peptide solution was pipetted onto the surface of the Epiderm sample container. Incubation was continued for 12 hours at 37° C., 5% CO2. After the incubation period, the sample containers were washed three times with PBS and the sample containers were transferred to a 24 well plate that contained 300 μL of MTT assay media per well (MTT concentration was 1 mg/mL). The colorimetric assay was allowed to develop for three hours (incubation at 37° C., 5% CO2). Sample containers were then transferred to a 24 well culture plate that contained 2 mL of isopropanol per well. Extraction of the colored precipitate occurred over a period of four hours at room temperature. Absorbance readings were taken at 570 nm and 650 nm for each sample. The percent viability of each sample relative to a PBS control was calculated as: 100×(OD570^sam−OD650^sam)/(OD570^con−OD650^con) (6) Routinely, the peptide sample was assayed in triplicate. Results The sequence of matrix metalloproteinase-2 (SEQ ID NO:14) is provided below to facilitate definition of the various domains and regions in matrix metalloproteinases."}, "[3]": {"system": "normal human dermal fibroblasts (Clonetics, CC-2509)", "experiment": "Fibroblast proliferation assay", "conditions": "28 hours", "description": "A human skin fibroblast cell line (Clonetics, Walkersville, Md., normal human dermal fibroblasts, neonatal, catalog number CC-2509) was tested to ascertain whether exposure to a peptide of the invention would stimulate cellular proliferation. The proliferative response of the human skin fibroblast cell line to thel 9mer peptide (SEQ ID NO:11) was measured in a 96-well assay system using serum-free medium as a control. […] Plates were incubated for 24 hours at 37° C. in a humidified 5% CO2 atmosphere. After incubation, the medium was aspirated and the wells were rinsed twice with 100 μl of serum-free DMEM. […] In addition, 100 μl of vehicle (serum-free DMEM) was added to 10 wells as control. All wells were incubated for 28 hours at 37° C. in a humidified, 5% CO2 atmosphere. After incubation, 20 μl of Cell Titer 96 Aqueous One Solution was added to all wells. The plates were swirled gently and placed back in the incubator for 45 minutes and spectrophotometric absorbance was read at 490 nm. Results were analyzed statistically using one-way ANOVA."}}, "data": [{"smiles": "CC(C)[C@H](NC(=O)[C@H](CC(=O)O)NC(=O)[C@@H]1CCCN1C(=O)[C@H](CC(N)=O)NC(=O)CNC(=O)[C@H](CS)NC(=O)[C@H](CCCNC(=N)N)NC(=O)[C@@H]1CCCN1)C(=O)N[C@@H](C)C(=O)N[C@@H](CC(N)=O)C(=O)N[C@@H](Cc1ccc(O)cc1)C(=O)N[C@@H](CC(N)=O)C(=O)N[C@@H](Cc1ccccc1)C(=O)N[C@@H](Cc1ccccc1)C(=O)N1CCC[C@H]1C(=O)N[C@@H](CCCNC(=N)N)C(=O)N[C@@H](CCCCN)C(=O)N1CCC[C@H]1C(=O)N[C@@H](CCCCN)C(=O)O", "note": "[19-mer]", "values": [{"measurement": "Percent Neutrophil Migration exp.1", "setting": "[1]; 1 μg/mL", "result": 32, "unit": "%"}, {"measurement": "Percent Neutrophil Migration exp.1", "setting": "[1]; 10 μg/mL", "result": 22, "unit": "%"}, {"measurement": "Percent Neutrophil Migration exp.1", "setting": "[1]; 100 μg/mL", "result": 29, "unit": "%"}, {"measurement": "Percent Neutrophil Migration exp.1", "setting": "[1]; 1 mg/mL, one hour", "result": 23, "unit": "%"}, {"measurement": "viability at 12 h", "setting": "[2]", "result": 97.6, "unit": "%"}, {"measurement": "fibroblast growth (OD 490 nm) versus control", "setting": "[3]; 1×10^−4 M", "result": "even greater cell growth"}, {"measurement": "fibroblast growth (OD 490 nm) versus control", "setting": "[3]; 1×10^−5 M", "result": "significantly greater cell density"}, {"measurement": "fibroblast growth (OD 490 nm) versus control", "setting": "[3]; 1×10^−6 M", "result": "a small amount of cell proliferation"}]}]}
